{"source": "patent US20100040568A1", "about": "“Steroidal compounds as melanogenesis modifiers and uses thereof” (SkinMedica, Inc., priority 2008, published 2010)", "key": {"melan-a cells": {"system": "melan-a cells", "experiment": "Melanin assay in cultured murine melanocytes (melan-a)", "format": "cell-based", "settings": "72 hours", "procedure": "The Spectrum Collection library consisting of 2000 drug compounds or natural products was screened to identify novel pigmentation inhibitors or stimulators in cultured murine melanocytes (melan-a). Compounds were dissolved in dimethylsulfoxide (DMSO) to a final concentration of 10 mM. Screening was performed with cultured melanocytes in 24-well plates followed by melanin assay (see below). A minimum change of 50% in melanin formation was established as significant for a pigmentation inhibitor or stimulator. DMSO was used as a negative control and the widely used depigmenting agent, hydroquinone, was used as a positive control on every plate. […] Melan-a cells were plated at 5×10^4 cells per well in 1 ml of culture media in 24-well plates the day before adding the library compounds. All compounds were added at the indicated final concentrations. Cells were harvested after 72 hours of incubation, and melanin assay was performed. For the primary and secondary screening, cells were harvested and dissolved in 200 μl of 2N NaOH in 20% DMSO at 70° C. A 180-μl aliquot of the resulting solution was measured for absorbance at 490 nm. Cells are harvested in extraction buffer (1% Triton X-100, 50 mM Tris, 2 mM EDTA, 150 mM NaCl, pH 7.5) containing a complete protease inhibitor cocktail (Roche). The lysates were centrifuged at 14,000 rpm for 10 minutes at 4° C. BCA protein assay kit (Pierce) was used to measure the protein concentrations of the supernatants, and bovine serum albumin was used as a standard. […] A 180-μl aliquot of the resulting solution was measured for absorbance at 490 nm. The melanin contents were normalized to the total amount of protein. The IC50 value for inhibition of cellular melanin synthesis for conessine was determined by culturing melan-a cells with various concentrations of conessine for 72 hours. Briefly, melan-a cells were plated at 5×10^4 cells per well in 1 ml of culture media in 24-well plates the day before adding conessine. Conessine was added at the indicated final concentrations. DMSO was used as a negative control. Cells were harvested after 72 hours of incubation, and spectrophotometric melanin assay was performed on cell pellets. The melanin contents were normalized to the total amount of protein. Cell viability was determined by using the CellTiter 96 aqueous nonradioactive cell proliferation assay. […] Licorice extract was tested under similar conditions as conessine for its ability to decrease melanin synthesis in melan-a cells (FIG. 11c). Melan-a cells were plated at 5×10^4 cells per well in 1 ml of culture media in 24-well plates the day before adding Licorice extract. 70% ethanol was used as control and the Licorice extract was diluted in cell culture media at the indicated concentrations. […] Cells were harvested after 72 hours of incubation, and spectrophotometric melanin assay was performed on cell pellets. The melanin contents were normalized to the total amount of protein. Cell viability was determined by using the CellTiter 96 aqueous nonradioactive cell proliferation assay."}, "[1]": {"system": "African-American skin equivalent (MEL-B)", "experiment": "MelanoDerm pigmentation assay, African-American skin equivalent", "format": "cell-based, human", "procedure": "MelanoDerm™, made by MatTek Corp., is a viable reconstituted three-dimensional human skin equivalent containing normal melanocytes and keratinocytes that are derived from African-American (MEL-B), Asian (MEL-A) or Caucasian (MEL-C) donors. Both MEL-A and MEL-B tissues were used in the current study, and they were maintained in the NMM-113 medium as recommended by the manufacturer.\nConessine (from Sigma) was dissolved in 30% ethanol: 70% propylene glycol to a final concentration of 1.0 mM (equal to 356.6 μg/ml), and this was maintained constant and used on all samples tested. A 25 μl of its aliquot was applied topically to the MelanoDerm™ tissue (MEL-B) on Days 0, 1, 3, 6, 8 and 10. The MelanoDerm™ tissues were fed every other day with 5 ml fresh NMM-113. Prior to each application, the tissues were washed with 1 ml PBS to remove any residual test compound. Tissues were fixed on Days 10 and 13 for microscopic analysis and histological evaluation. In addition, duplicate tissues were frozen on Days 10 and 13 for the melanin assay.\nThe experiments were repeated twice on both MEL-A and MEL-B tissues from different lots to make sure that the results are reproducible (study 1 or 2). For each experiment, six tissues were treated with conessine, and six were treated with […] (30% ethanol: 70% PEG) or arbutin if applicable. For MEL-B, on day 10, three tissues under each treatment condition were taken out, and one was used for histological studies and the other two were used for the melanin assay. The same protocol was followed with the MEL-B samples after 13 days' treatment and MEL-A after either 13 or 16 days' treatments.\nProcedure 1: the effects of conessine on melanin synthesis in MEL-A or B were evaluated by light microscopy (views from the top surface of the tissue). Procedure 2: the distribution of melanin in the treated-MEL-A or B was accessed by image analysis using Fontana-Masson stained histological sections (views from the side of the tissue).\nMelanoDerm™, made by MatTek Corp., is a viable reconstituted three-dimensional human skin equivalent containing normal melanocytes and keratinocytes that are derived from African-American (MEL-B), Asian (MEL-A) or Caucasian (MEL-C) donors. It has human skin-like structure and undergoes progressive tissue darkening over the course of 2-3 weeks. MelanoDerm™ provides a useful in vitro means for evaluation of agents that modulate pigmentation. Human skin equivalent models such as MelanoDerm™ provide an alternative to clinical and animal testing for evaluating the effects of putative bioactive compounds on mammalian pigmentation. MelanoDerm™ is considered a more physiologically relevant model than melanocytes alone or melanocyte-keratinocyte co-cultures. Both MEL-A and MEL-B tissues were used in the current study, and they were maintained in the NMM-113 medium as recommended by the manufacturer. In this model, substantial accumulation of newly synthesized melanin occurs over a two to three week period.\nConessine and Licorice extract were dissolved in 30% ethanol: 70% propylene glycol (PEG) to a final concentration of 0.036% (0.36 mg/ml). A 25 μl aliquot of each compound was applied topically to the Asian MelanoDerm™ tissue (MEL-A) on Days 0, 1, 3, 6, 8, 10 and 13. The MelanoDerm™ tissues were fed every other day with 5 ml fresh NMM-113. Prior to each application, the tissues were washed with 1 ml PBS to remove any residual test compound. Tissues were fixed on Days 13 and 16 for microscopic analysis and histological evaluation. In addition, duplicate tissues were frozen on Days 13 and 16 for melanin assay. 30% ethanol: 70% PEG was used as negative control. Cell viability was measured in accordance with the manufacturer's instructions using the MTT assay kit (MatTek Corp., Ashland, Mass. 01721). One MEL-A tissue from each condition was harvested on day 2 and 7, and MTT assay was performed. Similar experiments were performed on MEL-B."}}, "data": [{"smiles": "CC1C2CCC3C4CC=C5CC(N(C)C)CCC5(C)C4CCC32CN1C", "note": "(centres unmarked) [Compound 1, Conessine]", "values": [{"measurement": "effect on melanin synthesis in melan-a cells", "setting": "melan-a cells; indicated concentrations", "result": "significantly inhibited melanogenesis in a dose-dependent manner"}, {"measurement": "IC50", "setting": "melan-a cells; Mus musculus, melan-a cells, melanin normalized to protein, read-out: IC50 value for inhibition of cellular melanin synthesis", "result": "~2.5", "unit": "µM"}, {"measurement": "% of control remaining @ 1 μM", "setting": "melan-a cells; melanin, melan-a cells, 1 μM", "result": "73.3 % of control"}, {"measurement": "% of control remaining @ 5 μM", "setting": "melan-a cells; melanin, melan-a cells, 5 μM", "result": "32.2 % of control"}, {"measurement": "decrease of melanin content (Fontana-Masson staining, image analysis)", "setting": "[1]; 1.0 mM topical, days 10 and 13, compared with control-treated", "result": "50-60%"}, {"measurement": "colour by light microscopy", "setting": "[1]; 0.036% topical", "result": "considerable decrease in the color of MEL-B"}, {"measurement": "decrease of melanin content (quantitative melanin assay)", "setting": "[1]; 0.036% topical, 10 or 13 days", "result": "about 30%"}, {"measurement": "melanin content compared to the vehicle-treated tissues (Fontana-Masson sections, quantitative analysis)", "setting": "[1]; 0.036% topical, day 10, 8 sections", "result": 73.61, "unit": "%"}, {"measurement": "melanin content compared to the vehicle-treated tissues (Fontana-Masson sections, quantitative analysis)", "setting": "[1]; 0.036% topical, day 13, 8 sections", "result": 62.43, "unit": "%"}, {"measurement": "effectiveness as depigmenting agent (comparison)", "setting": "[1]; arbutin 3 mg/ml, conessine and licorice 0.36 mg/ml, extract 1:50", "result": "more effective than either Licorice extract or arbutin"}, {"measurement": "melanin content by Fontana-Masson staining", "setting": "[1]; conessine 0.36 mg/ml, extract diluted 1:50, 25 μl topical, days 10 and 13", "result": "decreases significantly"}]}]}
